Data reported in patent publication US20200030388A1, “COMPOSITIONS FOR MODIFYING GUT MICROBIOTA” (priority 2017, published 2020).
Where “and” joins values, the source holds several entries; their conditions need not be identical. Equal values may be shown once. Marks after values point to notes of the source that are not given here.

How the values were obtained:
[1] = tested on: Mouse 3T3-L1 pre-adipocytes; assay: Adipogenesis inhibition in 3T3-L1 cells, Oil red O staining; assay type: cell-based; details: 3T3-L1 adipocytes, read-out: inhibition of lipid accumulation
Experimental: Garcinol (20%) stock of 10 mg/ml was prepared in DMSO and filtered through 0.2 micron syringe filter. Stock was diluted 1000 times in DMEM to get 10 μg/ml final concentration and serially diluted. Insulin (Hi Media) was bought as a solution at a concentration of 20 mg/ml. This was diluted to 1 μg/ml in DMEM. IBMX-(Sigma)—Stock of 5 mM was prepared in DMEM, and diluted 10 times to be used at a final concentration of 0.5 mM. Dexamethasone (Sigma)—A stock of […] was prepared in DMEM and diluted 40 times to get a final concentration of 0.25 μM
Mouse 3T3-L1 pre-adipocytes were cultured in DMEM containing 25 mM glucose with 10% heat-inactivated fetal calf serum with antibiotics at 37° C. and 5% CO2. When the cells were 70-80% confluent, they were trypsinized, washed and seeded in 6 well plates at a density of 2×10^6 cells per well. Cells were induced to differentiate 2 d after reaching confluence (day 0), by supplementing DMEM media containing 10% Fetal Bovine Serum (FBS) along with 1 μg/mL insulin, 0.25 μM dexamethasone, 0.5 mM 1-methyl-3-isobutyl-xanthine (IBMX) and different concentrations of Garcinol (20%). From day 3 until day 7, cells were maintained in progression media supplemented with 1 μg/mL insulin and different concentrations of Garcinol (20%). […] Quantification for amount of triglycerides accumulated in adipocytes was done by Oil red O staining.

[2] = tested on: HFD-fed C57BL/6 male mice; assay: Garcinol versus garcinol blend in HFD-fed C57BL/6 mice, 16 weeks (Example 3); assay type: in vivo, mouse
Experimental: The present invention studied the anti-obesity effects of garcinol compared to a composition comprising garcinol, pterostilbene and anthocyanin (garcinol blend (GB) in mammals. The study was conducted in vivo on 5 weeks old C57BL/6 male mice. A total of 42 mice were involved in this study with 6 groups of 7 mice each. The groups were divided as in table 8.
The high fat diet (HFD) groups were fed 45% high fat diet for 16 weeks for the induction of obesity and concurrently administered the test substance as indicated in the aforesaid table. The normal group was fed with normal diet for 16 weeks.
Body weight was monitored weekly, and the average body weight of each group (n=7) was expressed as the means±SE.

[3] = tested on: High Fat Diet Induced Obesity in C57 Mice; assay: High fat diet induced obesity in C57 mice, 16 weeks (Example 1); assay type: in vivo, mouse; details: for Change in weight / Final weight / Kidney weight / Pancreas Weight / Spleen Weight / Mesenteric Fat / Peri-gonadal Fat / Retroperitoneal Fat: HFD; for Change in weight / Final weight / Mesenteric Fat / Peri-gonadal Fat / Retroperitoneal Fat: 120 days
Experimental: C57/BL6 mice, 6-8 weeks of age and 8 animals/Group (4 Male and 4 Female) were used for the study. Animals were housed under standard laboratory conditions, air-conditioned with adequate fresh air supply (12-15 Air changes per hour), room temperature 20.2-23.5° C. and relative humidity 58-64% with 12 hours fluorescent light and 12 hours dark cycle. The temperature and relative humidity was recorded once daily.
The animals were fed with Normal diet (9 kcal/day) and High fat diet (50 kcal/day) throughout the acclimatization and experimental period.
The design of the study groups is depicted in table 2.
Body weight of the animals was recorded in all the days of experimental period. At the end of the experimental period, the animals were sacrificed by cervical dislocation. Blood was collected and Serum was separated by centrifugation and used for the analysis of biochemical parameters. The organs such as Liver Kidney, Spleen and Pancreas and Fat Tissues (Retroperitoneal, Peri-gonadal and Mesenteric) were dissected out and washed in phosphate buffered saline.
The following parameters were measured in the above groups: • Measurement of Body weight • Determination of Organ Weight • Estimation of Cholesterol (Zak et al., ([…]) A new method for the determination of serum cholesterol. J Clin Endocrinol Metab., 94(7), 2215-2220) • Estimation of Triglycerides (Foster L. B and Dunn R. T. (1973) Stable reagents for determination of serum triglycerides by a colorimetric Hantzsch condensation method. Clin Chem. 196, 338-340). • Estimation of HDL Cholesterol (Burstein et al., (1970). Determination of HDL cholesterol. J. lipid Res., 11, 583). • Determination of LDL and VLDL (Friedewald et al., (1972) Estimation of the concentration of Low Density Lipoprotein cholesterol in plasma without use of preparative centrifuge. J. Clin Chem.; 18:499).

[4] = tested on: HFD-Induced Obese Mice (C57BL/6); assay: GAR, FOR, LMIX, HMIX in HFD-induced obese mice, 12 weeks (Example 4)
Experimental: Four-week-old, male C57BL/6 mice were purchased from the BioLASCO Experimental Animal Center (Taiwan Co., Ltd., Taipei, Taiwan) and housed in a controlled atmosphere (25±1° C. at 50% relative humidity) with a 12 h light/12 h dark cycle. After 1 week of acclimation, animals were randomly distributed into 6 groups as follows: normal diet (ND, 15% energy from fat), high-fat diet (HFD, 50% energy from lard-based fat), and HFD supplemented with 0.01% garcinol (GAR group), 0.025% Forskolin (FOR group), 0.005% GAR+0.025% FOR (LMIX group), and 0.01% Gar+0.025% For (HMIX group) for 12 weeks. […] Animals had free access to food and water. Food consumption was monitored daily and the body weight was recorded weekly. At the end of the experiments, all animals were sacrificed by CO2 asphyxiation. Blood samples were collected from the heart for biochemical analysis. The liver, spleen, kidney, fat pads (perigonadal, retroperitoneal, and mesenteric fat), and fresh fecal pellets were immediately removed and stored at −80° C. until further analysis.
Liver and the perigonadal adipose tissue were dissected and fixed in 10% buffered formalin for at least 24 h, dehydrated with a sequence of ethanol solutions, and processed for embedding in paraffin. Sections of 4 μm in thickness were cut, deparaffinized, rehydrated, stained with hematoxylin and eosin (H&E), and subjected to photo microscopic observation. Adipocyte size was measured at 100× magnification and determined by Image J software (U. S. National Institutes of Health, Bethesda, Md., USA).

Question: Which inhibition at 5 µg/mL ([1]; 5 μg/ml) does the source give for `C=C(C)[C@@H](CC=C(C)C)C[C@@]12C[C@@H](CC=C(C)C)C(C)(C)[C@@](CC=C(C)C)(C(=O)C(C(=O)c3ccc(O)c(O)c3)=C1O)C2=O` [garcinol] here?
Answer: 47.8%

Question: And the inhibition at 10 µg/mL ([1]; 10 μg/ml)?
Answer: 47.2%

Question: And the Final weight ([2]; HFD + 0.1% test substance)?
Answer: 32.1 ± 2.6^b g

Question: And the Weight gain ([2]; HFD + 0.1% test substance)?
Answer: 10.5 ± 2.1^b g

Question: And the Final weight ([2]; HFD + 0.5% test substance)?
Answer: 25.4 ± 0.8^b g

Question: And the Weight gain ([2]; HFD + 0.5% test substance)?
Answer: 3.9 ± 0.6^b g

Question: And the Change in weight ([3]; G5: garcinol 5 mg/kgbw)?
Answer: 10.03 ± 2.25 g

Question: What about the “Final weight” value ([3]; G5: garcinol 5 mg/kgbw) of the same compound?
Answer: 29.33 ± 1.47 g

Question: And the Change in weight ([3]; G10: garcinol 10 mg/kgbw)?
Answer: 10.25 ± 1.39 g

Question: What about the “Final weight” value ([3]; G10: garcinol 10 mg/kgbw) of the same compound?
Answer: 28.25 ± 1.39 g

Question: What about the Change in weight ([3]; G20: garcinol 20 mg/kgbw) of the same compound?
Answer: 7.62 ± 2.18 g

Question: What about the “Final weight” value ([3]; G20: garcinol 20 mg/kgbw) of the same compound?
Answer: 27.37 ± 1.88 g

Question: And the Change in weight ([3]; G40: garcinol 40 mg/kgbw)?
Answer: 6.28 ± 1.03 g

Question: And the “Final weight” value ([3]; G40: garcinol 40 mg/kgbw)?
Answer: 26.00 ± 1.33 g

Question: And the Kidney weight ([3]; Group III: garcinol 5 mg/kgbw)?
Answer: 0.49 ± 0.03 g wet tissue

Question: And the “Pancreas Weight” value ([3]; Group III: garcinol 5 mg/kgbw)?
Answer: 0.23 ± 0.01 g wet tissue

Question: What about the “Spleen Weight” value ([3]; Group III: garcinol 5 mg/kgbw) of the same compound?
Answer: 0.25 ± 0.02 g wet tissue

Question: And the “Mesenteric Fat” value ([3]; Group III: garcinol 5 mg/kgbw)?
Answer: 0.63 ± 0.07 g wet tissue

Question: And the “Peri-gonadal Fat” value ([3]; Group III: garcinol 5 mg/kgbw)?
Answer: 1.33 ± 0.32 g wet tissue

Question: And the “Retroperitoneal Fat” value ([3]; Group III: garcinol 5 mg/kgbw)?
Answer: 0.45 ± 0.06 g wet tissue

Question: And the Kidney weight ([3]; Group IV: garcinol 10 mg/kgbw)?
Answer: 0.42 ± 0.03 g wet tissue

Question: What about the “Pancreas Weight” value ([3]; Group IV: garcinol 10 mg/kgbw) of the same compound?
Answer: 0.17 ± 0.01 g wet tissue

Question: And the “Spleen Weight” value ([3]; Group IV: garcinol 10 mg/kgbw)?
Answer: 0.20 ± 0.01 g wet tissue

Question: What about the “Mesenteric Fat” value ([3]; Group IV: garcinol 10 mg/kgbw) of the same compound?
Answer: 0.56 ± 0.05 g wet tissue

Question: And the “Peri-gonadal Fat” value ([3]; Group IV: garcinol 10 mg/kgbw)?
Answer: 1.17 ± 0.22 g wet tissue

Question: And the “Retroperitoneal Fat” value ([3]; Group IV: garcinol 10 mg/kgbw)?
Answer: 0.43 ± 0.05 g wet tissue

Question: And the Kidney weight ([3]; Group V: garcinol 20 mg/kgbw)?
Answer: 0.45 ± 0.06 g wet tissue

Question: And the “Pancreas Weight” value ([3]; Group V: garcinol 20 mg/kgbw)?
Answer: 0.21 ± 0.02 g wet tissue

Question: What about the “Spleen Weight” value ([3]; Group V: garcinol 20 mg/kgbw) of the same compound?
Answer: 0.22 ± 0.03 g wet tissue

Question: What about the “Mesenteric Fat” value ([3]; Group V: garcinol 20 mg/kgbw) of the same compound?
Answer: 0.601 ± 0.08 g wet tissue

Question: What about the “Peri-gonadal Fat” value ([3]; Group V: garcinol 20 mg/kgbw) of the same compound?
Answer: 1.35 ± 0.21 g wet tissue

Question: And the “Retroperitoneal Fat” value ([3]; Group V: garcinol 20 mg/kgbw)?
Answer: 0.46 ± 0.06 g wet tissue

Question: What about the Kidney weight ([3]; Group VI: garcinol 40 mg/kgbw) of the same compound?
Answer: 0.42 ± 0.04 g wet tissue

Question: And the “Pancreas Weight” value ([3]; Group VI: garcinol 40 mg/kgbw)?
Answer: 0.22 ± 0.02 g wet tissue

Question: And the “Spleen Weight” value ([3]; Group VI: garcinol 40 mg/kgbw)?
Answer: 0.23 ± 0.02 g wet tissue

Question: What about the “Mesenteric Fat” value ([3]; Group VI: garcinol 40 mg/kgbw) of the same compound?
Answer: 0.59 ± 0.05 g wet tissue

Question: What about the “Peri-gonadal Fat” value ([3]; Group VI: garcinol 40 mg/kgbw) of the same compound?
Answer: 1.41 ± 0.14 g wet tissue

Question: And the “Retroperitoneal Fat” value ([3]; Group VI: garcinol 40 mg/kgbw)?
Answer: 0.46 ± 0.04 g wet tissue

Question: What about the “weight of the organs (adverse effects)” value ([3]; kidney, spleen, pancreas, Table 5) of the same compound?
Answer: did not adversely affect

Question: And the Weight gain ([4]; 0.01% GAR, 0.025% FOR, LMIX, HMIX)?
Answer: 12.7 ± 2.0^b g

Question: And the Final weight ([4]; 0.01% GAR, 0.025% FOR, LMIX, HMIX, listed as GAR)?
Answer: 34.4 g and 34.4 ± 2.6^b g

Question: And the Kidney ([4]; organ weight)?
Answer: 0.4 ± 0.03^a g

Question: What about the Liver ([4]; organ weight) of the same compound?
Answer: 1.6 ± 0.2^b g

Question: What about the Spleen ([4]; organ weight) of the same compound?
Answer: 0.06 ± 0.01^a g
